Experimental data reported in US20060275362A1, “Rapidly-dissolving pharmaceutical composition for inhibiting ovulation” (priority 2005, published 2006).

Assay: Effect of Tween 80 on the solubility of drospirenone in water
Type: physicochemical
Settings: Solubility enhancer Tween 80 (Polysorbate 80), drug:enhancer 1:9 parts by weight, agitated approximately 22 hours, versus water alone

With C[C@]12CCC(=O)C=C1[C@@H]1C[C@@H]1[C@H]1[C@@H]3[C@@H]4C[C@@H]4[C@@]4(CCC(=O)O4)[C@@]3(C)CC[C@@H]12 [Drospirenone, (2′S, 6R, 7R, 8R, 9S, 10R, 13S, 14S, 15S, 16S)-1,3′, 4′, 6,7,8,9, 10, 11, 12, 13, 14, 15, 16, 20, 21-hexadecahydro-10, 13-dimethylspiro[17H-dicyclopropa[6,7:15,16]cyclopenta[a]phenanthrene-17,2′(5′H)-furan]-3,5′(2H)-dione] the “% Increase in the Solubility of Drospirenone as Determined by HPLC” value was 42%.
